Test results from patent US11078170B2 (Assembly Biosciences, Inc., priority 2017, dated 2021).
pEC50: −log10 of the molar value.

tested on: HBV viral production from HepAD38 cells; assay: Activity of test compounds on viral production from HepAD38 cells (viral load by qPCR of HBV core sequence in supernatant); type: cell-based; settings: Hepatitis B virus, 120 h, 5 days incubation, HBV DNA in supernatant by qPCR, top concentration 10 μM, read-out: Viral Load EC50 Activity range
Summary of the method: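 HepAD38 cells, 50,000/well in tetracycline-free 2% FBS medium, treated 5 days at 37° C. with compound from 10 μM top concentration. HBV DNA in supernatant quantified by TaqMan qPCR of core sequence against DNA standards, relative to DMSO wells; CellTiter-Glo viability read in parallel. EC50/CC50 from four-parameter logistic fit.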

SMILES	pEC50
CN1[C@H](C(=O)Nc2ccc(F)c(Cl)c2)C[C@H](c2ccc(F)cc2)NS1(=O)=O [HBV-CSU-112-ISO-I, Cis-N-(3-Chloro-4-fluorophenyl)-5-(4-fluorophenyl)-2-methyl-1,2,6-thiadiazinane-3-carboxamide 1,1-dioxide]	> 6.00
CN1[C@@H](C(=O)Nc2ccc(F)c(Cl)c2)C[C@@H](c2ccc(F)cc2)NS1(=O)=O [HBV-CSU-112-ISO-II, Cis-N-(3-Chloro-4-fluorophenyl)-5-(4-fluorophenyl)-2-methyl-1,2,6-thiadiazinane-3-carboxamide 1,1-dioxide]	< 5.30
CN1[C@H](C(=O)Nc2ccc(F)c(Cl)c2)C[C@H](c2ccccc2)NS1(=O)=O [HBV-CSU-113-ISO-I, Cis-N-(3-chloro-4-fluorophenyl)-2-methyl-5-phenyl-1,2,6-thiadiazinane-3-carboxamide 1,1-dioxide]	> 6.00
CN1[C@@H](C(=O)Nc2ccc(F)c(Cl)c2)C[C@@H](c2ccccc2)NS1(=O)=O [HBV-CSU-113-ISO-II, Cis-N-(3-chloro-4-fluorophenyl)-2-methyl-5-phenyl-1,2,6-thiadiazinane-3-carboxamide 1,1-dioxide]	< 5.30
CN1C(C(=O)Nc2ccc(F)c(Cl)c2)CC(c2ccc(Br)s2)NS1(=O)=O (stereo not shown) [HBV-CSU-114, 5-(5-Bromothiophen-2-yl)-N-(3-chloro-4-fluorophenyl)-2-methyl-1,2,6-thiadiazinane-3-carboxamide 1,1-dioxide]	> 6.00
CN1[C@H](C(=O)Nc2ccc(F)c(Cl)c2)C[C@H](c2ccc(Br)s2)NS1(=O)=O [HBV-CSU-114-ISO-I, (3S,5R)-5-(5-Bromothiophen-2-yl)-N-(3-chloro-4-fluorophenyl)-2-methyl-1,2,6-thiadiazinane-3-carboxamide 1,1-dioxide]	> 6.00
CN1[C@@H](C(=O)Nc2ccc(F)c(Cl)c2)C[C@@H](c2ccc(Br)s2)NS1(=O)=O [HBV-CSU-114-ISO-II, 5-(5-Bromothiophen-2-yl)-N-(3-chloro-4-fluorophenyl)-2-methyl-1,2,6-thiadiazinane-3-carboxamide 1,1-dioxide]	< 5.30
CN1[C@@H](C(=O)Nc2ccc(F)c(Cl)c2)C[C@H](c2ccc(Br)s2)NS1(=O)=O [HBV-CSU-114-Trans-ISO-I, (3R,5R)-5-(5-bromothiophen-2-yl)-N-(3-chloro-4-fluorophenyl)-2-methyl-1,2,6-thiadiazinane-3-carboxamide 1,1-dioxide]	5.30 to 6.00
CN1[C@H](C(=O)Nc2ccc(F)c(Cl)c2)C[C@@H](c2ccc(Br)s2)NS1(=O)=O [HBV-CSU-114-Trans-ISO-II, (3S,5S)-5-(5-bromothiophen-2-yl)-N-(3-chloro-4-fluorophenyl)-2-methyl-1,2,6-thiadiazinane-3-carboxamide 1,1-dioxide]	5.30 to 6.00
Cc1ccc([C@H]2C[C@@H](C(=O)Nc3ccc(F)c(Cl)c3)N(C)S(=O)(=O)N2)s1 [HBV-CSU-115-ISO-I, Cis-N-(3-chloro-4-fluorophenyl)-2-methyl-5-(5-methylthiophen-2-yl)-1,2,6-thiadiazinane-3-carboxamide 1,1-dioxide]	> 6.00
Cc1ccc([C@@H]2C[C@H](C(=O)Nc3ccc(F)c(Cl)c3)N(C)S(=O)(=O)N2)s1 [HBV-CSU-115-ISO-II, Cis-N-(3-chloro-4-fluorophenyl)-2-methyl-5-(5-methylthiophen-2-yl)-1,2,6-thiadiazinane-3-carboxamide 1,1-dioxide]	< 5.30
CN1[C@H](C(=O)Nc2ccc(F)c(Cl)c2)C[C@H](c2ccc(-c3ccccc3)s2)NS1(=O)=O [HBV-CSU-116-ISO-I, Cis-N-(3-chloro-4-fluorophenyl)-2-methyl-5-(5-phenylthiophen-2-yl)-1,2,6-thiadiazinane-3-carboxamide 1,1-dioxide]	> 6.00
CN1C(C(=O)Nc2ccc(F)c(Cl)c2)CC(c2ccc(Cc3ccccc3)s2)NS1(=O)=O (stereo not drawn) [HBV-CSU-117, Cis-(5-benzylthiophen-2-yl)-N-(3-chloro-4-fluorophenyl)-2-methyl-1,2,6-thiadiazinane-3-carboxamide 1,1-dioxide]	> 6.00
CN1[C@H](C(=O)Nc2ccc(F)c(Cl)c2)C[C@H](c2ccc(Cc3ccccc3)s2)NS1(=O)=O [HBV-CSU-117-ISO-I, Cis-(5-benzylthiophen-2-yl)-N-(3-chloro-4-fluorophenyl)-2-methyl-1,2,6-thiadiazinane-3-carboxamide 1,1-dioxide]	> 6.00
CN1[C@@H](C(=O)Nc2ccc(F)c(Cl)c2)C[C@@H](c2ccc(Cc3ccccc3)s2)NS1(=O)=O [HBV-CSU-117-ISO-II, Cis-(5-benzylthiophen-2-yl)-N-(3-chloro-4-fluorophenyl)-2-methyl-1,2,6-thiadiazinane-3-carboxamide 1,1-dioxide]	5.30 to 6.00
CN1[C@H](C(=O)Nc2ccc(F)c(Cl)c2)C[C@H](c2ncc(Br)s2)NS1(=O)=O [HBV-CSU-122-ISO-I, (3S,5R)-5-(5-bromothiazol-2-yl)-N-(3-chloro-4-fluorophenyl)-2-methyl-1,2,6-thiadiazinane-3-carboxamide 1,1-dioxide]	> 6.00

SMILES	pEC50
CN1[C@@H](C(=O)Nc2ccc(F)c(Cl)c2)C[C@@H](c2ncc(Br)s2)NS1(=O)=O [HBV-CSU-122-ISO-II, Cis-5-(5-bromothiazol-2-yl)-N-(3-chloro-4-fluorophenyl)-2-methyl-1,2,6-thiadiazinane-3-carboxamide 1,1-dioxide]	5.30 to 6.00
CN1[C@@H](C(=O)Nc2ccc(F)c(Cl)c2)C[C@H](c2ncc(Br)s2)NS1(=O)=O [HBV-CSU-122-Trans-ISO-I, (3R,5R)-5-(5-bromothiazol-2-yl)-N-(3-chloro-4-fluorophenyl)-2-methyl-1,2,6-thiadiazinane-3-carboxamide 1,1-dioxide]	5.30 to 6.00
CN1[C@H](C(=O)Nc2ccc(F)c(Cl)c2)C[C@@H](c2ncc(Br)s2)NS1(=O)=O [HBV-CSU-122-Trans-ISO-II, (3S,5S)-5-(5-bromothiazol-2-yl)-N-(3-chloro-4-fluorophenyl)-2-methyl-1,2,6-thiadiazinane-3-carboxamide 1,1-dioxide]	5.30 to 6.00
CCOCCN1[C@@H](C(=O)Nc2ccc(F)c(Cl)c2)C[C@@H](c2nccs2)NS1(=O)=O [HBV-CSU-142-ISO-I, Cis-N-(3-Chloro-4-fluorophenyl)-2-(2-ethoxyethyl)-5-(thiazol-2-yl)-1,2,6-thiadiazinane-3-carboxamide 1,1-dioxide]	5.30 to 6.00
CC(C)OCCN1C(C(=O)Nc2ccc(F)c(Cl)c2)CC(c2nccs2)NS1(=O)=O (stereo not drawn) [HBV-CSU-143, Cis-N-(3-Chloro-4-fluorophenyl)-2-(2-isopropoxyethyl)-5-(thiazol-2-yl)-1,2,6-thiadiazinane-3-carboxamide 1,1-dioxide]	> 6.00
CN1C(C(=O)Nc2ccc(F)c(Cl)c2)CC(c2cc(Br)cs2)NS1(=O)=O (stereo not shown) [HBV-CSU-146, 5-(4-Bromothiophen-2-yl)-N-(3-chloro-4-fluorophenyl)-2-methyl-1,2,6-thiadiazinane-3-carboxamide 1,1-dioxide]	> 6.00
CN1[C@H](C(=O)Nc2ccc(F)c(Cl)c2)C[C@H](c2cc(Br)cs2)NS1(=O)=O [HBV-CSU-146-ISO-I, 5-(4-Bromothiophen-2-yl)-N-(3-chloro-4-fluorophenyl)-2-methyl-1,2,6-thiadiazinane-3-carboxamide 1,1-dioxide]	> 6.00
CN1[C@@H](C(=O)Nc2ccc(F)c(Cl)c2)C[C@@H](c2cc(Br)cs2)NS1(=O)=O [HBV-CSU-146-ISO-II, 5-(4-Bromothiophen-2-yl)-N-(3-chloro-4-fluorophenyl)-2-methyl-1,2,6-thiadiazinane-3-carboxamide 1,1-dioxide]	< 5.30
Cc1csc([C@H]2C[C@@H](C(=O)Nc3ccc(F)c(Cl)c3)N(C)S(=O)(=O)N2)c1 [HBV-CSU-147-ISO-I, Cis-N-(3-chloro-4-fluorophenyl)-2-methyl-5-(4-methylthiophen-2-yl)-1,2,6-thiadiazinane-3-carboxamide 1,1-dioxide]	> 6.00
Cc1csc([C@@H]2C[C@H](C(=O)Nc3ccc(F)c(Cl)c3)N(C)S(=O)(=O)N2)c1 [HBV-CSU-147-ISO-II, Cis-N-(3-chloro-4-fluorophenyl)-2-methyl-5-(4-methylthiophen-2-yl)-1,2,6-thiadiazinane-3-carboxamide 1,1-dioxide]	< 5.30
CN1[C@H](C(=O)Nc2ccc(F)c(Cl)c2)C[C@H](c2cc(-c3ccccc3)cs2)NS1(=O)=O [HBV-CSU-148-ISO-I, Cis-N-(3-chloro-4-fluorophenyl)-2-methyl-5-(4-phenylthiophen-2-yl)-1,2,6-thiadiazinane-3-carboxamide 1,1-dioxide]	> 6.00
CN1[C@@H](C(=O)Nc2ccc(F)c(Cl)c2)C[C@@H](c2cc(-c3ccccc3)cs2)NS1(=O)=O [HBV-CSU-148-ISO-II, Cis-N-(3-chloro-4-fluorophenyl)-2-methyl-5-(4-phenylthiophen-2-yl)-1,2,6-thiadiazinane-3-carboxamide 1,1-dioxide]	5.30 to 6.00
CN1[C@H](C(=O)Nc2ccc(F)c(Cl)c2)C[C@H](c2cc(Cc3ccccc3)cs2)NS1(=O)=O [HBV-CSU-149-ISO-I, Cis-(4-benzylthiophen-2-yl)-N-(3-chloro-4-fluorophenyl)-2-methyl-1,2,6-thiadiazinane-3-carboxamide 1,1-dioxide]	> 6.00
CN1[C@@H](C(=O)Nc2ccc(F)c(Cl)c2)C[C@@H](c2cc(Cc3ccccc3)cs2)NS1(=O)=O [HBV-CSU-149-ISO-II, Cis-(4-benzylthiophen-2-yl)-N-(3-chloro-4-fluorophenyl)-2-methyl-1,2,6-thiadiazinane-3-carboxamide 1,1-dioxide]	5.30 to 6.00
CN1[C@H](C(=O)Nc2ccc(F)c(Cl)c2)C[C@H](c2ccc(-c3ccc(C#N)c(F)c3)s2)NS1(=O)=O [HBV-CSU-156-ISO-I, Cis-N-(3-chloro-4-fluorophenyl)-5-(5-(4-cyano-3-fluorophenyl)thiophen-2-yl)-2-methyl-1,2,6-thiadiazinane-3-carboxamide 1,1-dioxide]	> 6.00
